According to patent US20190011433A1, “CELL CO-CULTURE SYSTEMS AND USES THEREOF” (Dana-Farber Cancer Institute, Inc., priority 2007, published 2019):
Entries after “also recorded” stand apart in the source; their conditions may differ.

Experiments:
[1] = test system: MM-1S-GFP-luc myeloma cells; assay: CS-BLI drug sensitivity of MM-1S-GFP-luc cells in presence vs absence of stromal cells; assay type: cell-based, human
Procedure: Luciferin (7.5 mg/mL; Xenogen Corp, Alameda, Calif.) was added at the volume stated in each experiment. Cell viability and the precise cell counts were established by Trypan blue exclusion assay immediately before plating of the cells. Compartment-specific bioluminescence emitted by individual wells of these plates was measured with two different bioluminescence imaging modalities, namely a Xenogen IVIS® Imaging System (FIG. 1A and FIG. 1B) and a standard luminometer plate reader—Luminoskan luminometer (Labsystems, MA) (FIG. 1C). The results with each method were analyzed for the linearity of the bioluminescent signal vs. cell number using the Living Image® software (Xenogen Corp, Alameda Calif.).

[2] = test system: KU812F-luc leukemia cells; assay: CS-BLI drug sensitivity of KU812F-luc leukemia cells in presence vs absence of HS-5 BMSCs; assay type: cell-based; settings: presence vs absence of HS-5 BMSCs (10,000 per well)
Source text: In another set of experiments, Applicants tested and observed similar protective/sensitization effect of stroma cell on KU812F-luc cells on various drugs (data not shown).
(§1) Applicants expanded the application of in vitro compartment-specific bioluminescence imaging assays beyond the MM cells to other tumor models, namely a few leukemic cell lines. Applicants specifically tested luciferase-expressing K562-luc-neo and KU812F-luc-neo leukemic cells against standard anti-leukemia agents, including AraC and Doxo, in the presence vs. absence of HS-5 stromal cells (FIG. 7A and FIG. 7B).

K562-luc leukemia cells = assay: CS-BLI drug sensitivity of K562-luc leukemia cells in presence vs absence of HS-5 BMSCs; assay type: cell-based; settings: presence vs absence of HS-5 BMSCs (10,000 per well)
Source text: as §1

[3] = test system: MDA-MB-231met-luc-neo cells; assay: CS-BLI drug sensitivity of MDA-MB-231met-luc-neo cells alone or with HS-5 BMSCs; assay type: cell-based; settings: MDA-MB-231met-luc-neo alone or with HS-5 BMSCs (10,000/well), 48 hrs
Procedure: (§2) MDA-MB-231met-luc-neo (FIG. 18A, FIG. 18B), A375-luc-neo (FIG. 18C, FIG. 18D) and FRO-luc-neo (FIG. 18E, FIG. 18F) cells were plated either alone or mixed with HS-5 BMSCs (10,000 /well) and treated the following day. The cultures of tumor cells and their co-cultures with BMSCs were incubated for an additional 48 hrs.

A375-luc-neo cells = assay: CS-BLI drug sensitivity of A375-luc-neo cells alone or with HS-5 BMSCs; assay type: cell-based; settings: A375-luc-neo alone or with HS-5 BMSCs (10,000/well), 48 hrs
Procedure: as §2

FRO-luc-neo cells = assay: CS-BLI drug sensitivity of FRO-luc-neo cells alone or with HS-5 BMSCs; assay type: cell-based; settings: FRO-luc-neo alone or with HS-5 BMSCs (10,000/well), 48 hrs
Procedure: as §2

[4] = test system: MM-1S-GFP-luc myeloma cells; assay: Flow cytometry (Apo2.7) drug sensitivity testing in tumor-stromal co-culture; assay type: cell-based, human; settings: Doxo 250 ng/mL, 48 hrs
Procedure: Applicants also evaluated the anti-tumor effects of these drugs in the presence of stromal cells, and compared the results obtained with in vitro compartment-specific bioluminescence vs. flow cytometric evaluation of drug-induced cell death. Specifically, luciferase-expressing MM cells were treated in vitro with Doxo (250 ng/mL) or vehicle, in the absence vs. presence of bone marrow stromal cells (BMSCs). For flow cytometry-based drug sensitivity testing in tumor-stromal co-culture, tumor cell viability in the presence vs. absence of stromal cells was evaluated by flow cytometry. Specifically, after incubation with drug or vehicle, MM-1S-GFP-luc myeloma cells were stained with Apo2.7 (BD Biosciences) to detect apoptotic cells. GFP positive myeloma cells were gated to distinguish them from GFP negative stromal cells in the co-cultures. The ratio of Apo2.7 positive cells in the GFP^+ compartment of the drug-treated condition vs. the vehicle-treated condition provided a quantified expression of viable cells in response to drug treatment. […] These flow cytometric results were consistent with results obtained with CS-BLI based applications as described in Example III.

[5] = test system: MM-1R-GFP-luc myeloma cells; assay: CS-BLI drug sensitivity of MM-1R-GFP-luc cells in presence vs absence of stromal cells; settings: MM-1R-GFP-luc (Dex-resistant), presence vs absence of HS-5 BMSCs (10,000 per well)

SMILES: COc1cccc2c1C(=O)c1c(O)c3c(c(O)c1C2=O)C[C@@](O)(C(=O)CO)C[C@@H]3O[C@H]1C[C@H](N)[C@H](O)[C@H](C)O1 [Doxo, Doxorubicin]
- effect of BMSC co-culture on tumor cell response to drug (protection) ([1]; presence vs absence of HS-5 BMSCs (10,000 per well)): attenuated the responses; also recorded: conferred protection; also recorded: confer protection
- effect of BMSC co-culture on tumor cell response to drug (protection) ([1]; presence vs absence of KM101, KM103, KM104, KM105 BMSC lines, Doxo 0-250 ng/mL): protective effects; also recorded: conferred protection
- effect of BMSC co-culture on tumor cell response to drug (protection) [2]: did not affect their response
- effect of BMSC co-culture on tumor cell response to drug (protection) (K562-luc leukemia cells): do not confer protection
- effect of BMSC co-culture on tumor cell response to drug (protection) [3]: modest protection
- effect of BMSC co-culture on tumor cell response to drug (protection) (A375-luc-neo cells): no protection
- effect of BMSC co-culture on tumor cell response to drug (protection) (FRO-luc-neo cells): modest protection
- Apo2.7 expression in GFP+ myeloma cells, co-culture with HS-5 vs absence of stroma [4]: decreased expression of Apo2.7
- effect of BMSC co-culture on tumor cell response to drug (protection) [5]: attenuated the responses; also recorded: confer protection
